Data reported in patent US5028598A, “Oxetanocin derivatives and their salts as well as use thereof” (Nippon Kayaku Kabushiki Kaisha, priority 1989, dated 1991).
≈ marks a conversion by molar mass, not a printed value.

Experiments:
[1] = test system: AIDS virus; assay: Anti-AIDS viral activity: virus antigen in infected MT-4 cells by indirect fluorescent antibody method; assay type: cell-based; settings: Human immunodeficiency virus 1, MT4, compound added 2 hours before virus, 10^3 to 10^4 infection units, cultured 4 days, read-out: EC50 (50% infection inhibitory concentration)
Procedure: After 0.5 ml of cell suspension prepared from MT-4 cells in 1×10^5 /ml was charged in a 24 well tray, 50 μl of a solution containing a predetermined quantity of Compound (lH) or Compound (lP) was added to the suspension. After culturing at 37° C. for 2 hours in 5% (v/v) carbon dioxide incubator, 10^3 to 10^4 infection units of AIDS virus were added and cultured for 4 days. Then, a part of the culture medium was applied onto a slide glass and immobilized with acetone, after which development of virus antigen was observed by indirect fluorescent antibody method. As the primary antibody of the fluorescent antibody method, a serum of AIDS patient was used. As its secondary antibody, FITC-labelled anti-human IgG antibody was used. Based on a proportion of the infected cells and non-infected cells where the chemical was added and where no chemical was added, a rate of infection was calculated. A concentration of the chemical and the rate of infection were plotted on semilogarithmic paper to determine 50% infection inhibitory concentration (EC50 value).

[2] = Cytotoxicity against MT-4 cells without virus (Trypane Blue staining, viable cell count); assay type: cell-based; settings: human, no virus added, read-out: CC50 (50% cytotoxicity)
Procedure: Furthermore, cytotoxicity of Compound (lH) and Compound (lP) against MT-4 cells was examined without adding virus. After staining with […] Blue, viable cells were counted. Based on the count of viable cells where the chemical was added and where no chemical was added, a degree of inhibition was calculated. A concentration of the chemical and the degree of inhibition were plotted on semilogarithmic paper to determine 50% cytotoxicity (CC50 value).

EC50 [1] [µg/mL] | SMILES | CC50 [2] [µg/mL]
0.035 (≈ 0.139 µM) | Nc1nnnc2c1ncn2[C@@H]1O[C@H](CO)[C@H]1CO [Compound (1H)] | > 100
0.14 (≈ 0.421 µM) | Nc1nnnc2c1ncn2[C@@H]1O[C@H](COP(=O)(O)O)[C@H]1CO [Compound (1P)] | > 100
